Laboratory results taken from the supplement of paper PMC5908809.

Columns and labels:
[1] = tested on: normal NK cells expanded with K562-aAPC; assay: percent inhibition of viability; higher = more inhibition; conditions: 72 h, IL-2 2.5 ng/mL
Method: (§1)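 Drug sensitivity and resistance testing on K562-aAPC-expanded normal NK cells: 5 concentrations (10-fold steps over a 10,000-fold range), 72 h at 37 °C, viability by CellTiter-Glo normalised to DMSO and benzethonium chloride controls; DSS from the fitted curve.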

NKL (IL-2 2.5 ng/mL) [2] = assay: drug sensitivity score (DSS) (DSS units); higher = more sensitive; extreme values may be limits of the assay; conditions: 72 h
NK-YS (IL-2 2.5 ng/mL) [3] = assay: as above; conditions: 72 h
[4] = tested on: normal primary NK cells, pool 1 (3 donors) (IL-2 2.5 ng/mL); assay: as above; conditions: 72 h
DERL-7 (IL-2 2.5 ng/mL) [5] = assay: as above; conditions: 72 h
[6] = tested on: normal primary NK cells, pool 2 (3 donors) (IL-2 2.5 ng/mL); assay: as above; conditions: 72 h
[7] = tested on: normal primary NK cells, pool 3 (3 donors) (IL-2 2.5 ng/mL); assay: as above; conditions: 72 h
[8] = tested on: normal primary NK cells, pool 1 (3 donors), resting (IL-2 0 ng/mL); assay: as above; conditions: 72 h
KAI3 (IL-2 2.5 ng/mL) [9] = assay: as above; conditions: 72 h
YT (IL-2 2.5 ng/mL) [10] = assay: as above; conditions: 72 h
SNK-6 (IL-2 2.5 ng/mL) [11] = assay: as above; conditions: 72 h
KHYG-1 (IL-2 2.5 ng/mL) [12] = assay: as above; conditions: 72 h
NK-92 (IL-2 2.5 ng/mL) [13] = assay: as above; conditions: 72 h
IMC-1 (IL-2 20 ng/mL) [14] = assay: as above; conditions: 72 h
NKL (IL-2 2.5 ng/mL) [15] = assay: percent inhibition of viability; higher = more inhibition; conditions: 72 h
NK-YS (IL-2 2.5 ng/mL) [16] = assay: as above; conditions: 72 h
[17] = tested on: normal primary NK cells, pool 1 (3 donors) (IL-2 2.5 ng/mL); assay: as above; conditions: 72 h
DERL-7 (IL-2 2.5 ng/mL) [18] = assay: as above; conditions: 72 h
[19] = tested on: normal primary NK cells, pool 2 (3 donors) (IL-2 2.5 ng/mL); assay: as above; conditions: 72 h
[20] = tested on: normal primary NK cells, pool 3 (3 donors) (IL-2 2.5 ng/mL); assay: as above; conditions: 72 h
[21] = tested on: normal primary NK cells, pool 1 (3 donors), resting (IL-2 0 ng/mL); assay: as above; conditions: 72 h
KAI3 (IL-2 2.5 ng/mL) [22] = assay: as above; conditions: 72 h
YT (IL-2 2.5 ng/mL) [23] = assay: as above; conditions: 72 h
SNK-6 (IL-2 2.5 ng/mL) [24] = assay: as above; conditions: 72 h
KHYG-1 (IL-2 2.5 ng/mL) [25] = assay: as above; conditions: 72 h
NK-92 (IL-2 2.5 ng/mL) [26] = assay: as above; conditions: 72 h
IMC-1 (IL-2 20 ng/mL) [27] = assay: as above; conditions: 72 h
[28] = tested on: normal NK cells expanded with K562-aAPC; assay: drug sensitivity score (DSS) (DSS units); higher = more sensitive; extreme values may be limits of the assay; conditions: 72 h; IL-2 2.5 ng/mL
Method: as §1

COc1cccc2c1C(=O)c1c(O)c3c(c(O)c1C2=O)C[C@@](O)(C(C)=O)C[C@@H]3O[C@H]1C[C@H](N)[C@H](O)[C@H](C)O1 [Daunorubicin] (max concentration tested 1000 nM)
percent inhibition of viability [%]
Conditions | 0.1 nM | 1 nM | 10 nM | 100 nM | 1000 nM
DERL-7 (IL-2 2.5 ng/mL) [18] | -3.3 | -4.68 | 21.2 | 92.8 | 101
IMC-1 (IL-2 20 ng/mL) [27] | -9.54 | -10.2 | 16.5 | 98.7 | 101
KAI3 (IL-2 2.5 ng/mL) [22] | -5.78 | -13.2 | 19.7 | 61.9 | 106
KHYG-1 (IL-2 2.5 ng/mL) [25] | 1.81 | -4.06 | -1.19 | 93.7 | 109
NK-92 (IL-2 2.5 ng/mL) [26] | -16.2 | -14.1 | -9.07 | 89.9 | 109
NK-YS (IL-2 2.5 ng/mL) [16] | -2.31 | -8.67 | 23.9 | 77.1 | 106
NKL (IL-2 2.5 ng/mL) [15] | -2.22 | 6.13 | 88.5 | 104 | 109
SNK-6 (IL-2 2.5 ng/mL) [24] | -12.6 | -10.6 | -5.61 | 97.8 | 94.5
YT (IL-2 2.5 ng/mL) [23] | -3.13 | -9.89 | -7.78 | 93.8 | 110
[1] | -6.49 | -5.27 | 0.18 | 77.3 | 101
[17] | -16.8 | -3.87 | 17.1 | 94.1 | 98.6
[19] | -11.1 | -1.9 | 13 | 92.7 | 94.4
[20] | -11.8 | -3.78 | 7.93 | 81.6 | 99.9
[21] | -16.4 | -27.6 | 23.2 | 91.1 | 94

Conditions | drug sensitivity score
DERL-7 (IL-2 2.5 ng/mL) [5] | 19.7
IMC-1 (IL-2 20 ng/mL) [14] | 20.7
KAI3 (IL-2 2.5 ng/mL) [9] | 14.2
KHYG-1 (IL-2 2.5 ng/mL) [12] | 16.9
NK-92 (IL-2 2.5 ng/mL) [13] | 16
NK-YS (IL-2 2.5 ng/mL) [3] | 17.3
NKL (IL-2 2.5 ng/mL) [2] | 29.4
SNK-6 (IL-2 2.5 ng/mL) [11] | 17.1
YT (IL-2 2.5 ng/mL) [10] | 16.6
[4] | 19.6
[6] | 19.2
[7] | 16.1
[8] | 20.5
[28] | 14.4

CCN(CC)C(=S)SSC(=S)N(CC)CC [Disulfiram] (max concentration tested 100000 nM)
percent inhibition of viability [%]
Conditions | 10 nM | 100 nM | 1000 nM | 10000 nM | 100000 nM
DERL-7 (IL-2 2.5 ng/mL) [18] | 4.4 | 22.1 | 97.2 | 58.3 | 100
IMC-1 (IL-2 20 ng/mL) [27] | -0.36 | 2.91 | 74.2 | 44.6 | 101
KAI3 (IL-2 2.5 ng/mL) [22] | 0.03 | -5.96 | 23.3 | 29.1 | 99.8
KHYG-1 (IL-2 2.5 ng/mL) [25] | 1.86 | 2.15 | 64.2 | 44.3 | 101
NK-92 (IL-2 2.5 ng/mL) [26] | -0.19 | -7.5 | 39.9 | 1.99 | 98.8
NK-YS (IL-2 2.5 ng/mL) [16] | 1.28 | 2.15 | 66.6 | 59.1 | 94.4
NKL (IL-2 2.5 ng/mL) [15] | 2.6 | 19.2 | 89.2 | 93.1 | 103
SNK-6 (IL-2 2.5 ng/mL) [24] | 0.42 | -19.7 | 11.4 | -24.5 | 100
YT (IL-2 2.5 ng/mL) [23] | 3.15 | 1.21 | 7.05 | 7.11 | 96.6
[1] | -4.71 | 1.75 | 94.6 | 74 | 100
[17] | 3.67 | -0.96 | 99.8 | 99.5 | 101
[19] | -8.13 | 11.6 | 98.6 | 98.2 | 101
[20] | -15.5 | 1.36 | 98.2 | 99.1 | 101
[21] | -2.82 | 3.62 | 97.2 | 97.5 | 101

Conditions | drug sensitivity score
DERL-7 (IL-2 2.5 ng/mL) [5] | 32.9
IMC-1 (IL-2 20 ng/mL) [14] | 20
KAI3 (IL-2 2.5 ng/mL) [9] | 8.84
KHYG-1 (IL-2 2.5 ng/mL) [12] | 18.2
NK-92 (IL-2 2.5 ng/mL) [13] | 5.78
NK-YS (IL-2 2.5 ng/mL) [3] | 21.3
NKL (IL-2 2.5 ng/mL) [2] | 31.1
SNK-6 (IL-2 2.5 ng/mL) [11] | 4.39
YT (IL-2 2.5 ng/mL) [10] | 6.46
[4] | 30.3
[6] | 32.3
[7] | 30.4
[8] | 30.6
[28] | 29.9

CNC(=O)c1ccc(N2C(=S)N(c3ccc(C#N)c(C(F)(F)F)c3)C(=O)C2(C)C)cc1F [Enzalutamide] (max concentration tested 10000 nM)
percent inhibition of viability [%]
Conditions | 1 nM | 10 nM | 100 nM | 1000 nM | 10000 nM
DERL-7 (IL-2 2.5 ng/mL) [18] | -1.7 | -4.09 | -9.3 | -2.76 | -5
IMC-1 (IL-2 20 ng/mL) [27] | -3.38 | 0.92 | -2.2 | -1.9 | 18.3
KAI3 (IL-2 2.5 ng/mL) [22] | -6.43 | -7.59 | -3.84 | -14.2 | -5.9
KHYG-1 (IL-2 2.5 ng/mL) [25] | -6.93 | -4.23 | -3.55 | -6.97 | 4.84
NK-92 (IL-2 2.5 ng/mL) [26] | 1.65 | -8.18 | -6.81 | -3.14 | 20.8
NK-YS (IL-2 2.5 ng/mL) [16] | -6.5 | -3.69 | -3.22 | -8.67 | 5.9
NKL (IL-2 2.5 ng/mL) [15] | -2.17 | -13.2 | -14 | -9.34 | 1.3
SNK-6 (IL-2 2.5 ng/mL) [24] | 12.3 | 20.8 | -9.97 | 42.2 | 17.6
YT (IL-2 2.5 ng/mL) [23] | -1.41 | -1.46 | -3.16 | -4.82 | 3.56
[1] | -2.32 | -10.8 | -8.2 | -6.11 | -8.96
[17] | -3.9 | 0.9 | -0.41 | -2.29 | 4.21
[19] | -10.2 | -3.87 | -13.1 | -6.47 | 3.77
[20] | -14.6 | -16.8 | -6.74 | -9.3 | -4.81
[21] | 7.62 | -0.58 | -1.62 | 6.1 | 31.6

Conditions | drug sensitivity score
DERL-7 (IL-2 2.5 ng/mL) [5] | 0
IMC-1 (IL-2 20 ng/mL) [14] | 0.37
KAI3 (IL-2 2.5 ng/mL) [9] | 0
KHYG-1 (IL-2 2.5 ng/mL) [12] | 0
NK-92 (IL-2 2.5 ng/mL) [13] | 0.49
NK-YS (IL-2 2.5 ng/mL) [3] | 0
NKL (IL-2 2.5 ng/mL) [2] | 0
SNK-6 (IL-2 2.5 ng/mL) [11] | 4.37
YT (IL-2 2.5 ng/mL) [10] | 0
[4] | 0
[6] | 0
[7] | 0
[8] | 2.39
[28] | 0
